Laboratory results reported in US10226453B2, “3-(1H-indol-2-yl)-1H-pyrazolo[4,3-B]pyridines and therapeutic uses thereof” (Samumed, LLC, priority 2015, dated 2019).

What was measured:
SW480 colon cancer cells = test: Cell viability assay (CellTiter-Blue), SW480 colon cancer cells; format: cell-based; details: Homo sapiens, 96 h, four days; for EC50: CellTiter-Blue; for inhibition at 10 µM: given where EC50 >10 μM, read-out: percent inhibition at 10 μM
Method in brief: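 SW480 cells (~2×10^3/well) exposed four days at 37 °C to 8-point 1:3 dilutions, 10 μM down to 0.0045 μM. Viability from resazurin reduction (CellTiter-Blue, ~3 h, Ex 560/Em 590); EC50 by non-linear regression, or percent inhibition at 10 μM where EC50 exceeds 10 μM.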

[1] = system: primary human fibroblasts derived from IPF patients (LL29 cells) treated with TGF-β1; test: Inhibition of the fibrotic process: αSMA staining in TGF-β1 treated primary human fibroblasts from IPF patients (LL29 cells); format: cell-based; details: Fibroblast, 96 h, TGF-β1 20 ng/mL, 4 days; for EC50: % αSMA positive cells
Method in brief: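 LL29 IPF-patient lung fibroblasts in 1% FBS F12 were given compounds (11-point, 10 μM to […], 0.1% DMSO) plus TGF-β1 20 ng/mL for 4 days at 37 °C. αSMA-positive fraction of live (SYTOX-negative) cells was imaged and normalized to TGF-β1/DMSO wells. EC50 by non-linear regression, or % inhibition at 10 μM if >10 μM.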

Structure (SMILES) | EC50 (SW480 colon cancer cells) [nM] | EC50 [1] [nM] | inhibition at 10 µM (SW480 colon cancer cells) [%] | inhibition at 10 µM ([1]; given where EC50 >10 μM, 10 μM, read-out: percent inhibition at 10 μM) [%]
c1cc(-c2ccoc2)c2cc(-c3n[nH]c4ccc(-c5cn[nH]c5)nc34)[nH]c2c1 [Compound 711, 3-(4-(Furan-3-yl)-1H-indol-2-yl)-5-(1H-pyrazol-4-yl)-1H-pyrazolo[4,3-b] pyridine] | > 10000 | 8810 | 12.4 | –
Oc1cncc(-c2ccc3[nH]nc(-c4cc5ncccc5[nH]4)c3n2)c1 [Compound 1031, 5-(3-(1H-Pyrrolo[3,2-b]pyridin-2-yl)-1H-pyrazolo[4,3-b]pyridin-5-yl) pyridin-3-ol] | 4380 | > 10000 | – | 18.4
CCCCC(=O)Nc1cncc(-c2ccc3[nH]nc(-c4cc5c(N6CCCCC6)cccc5[nH]4)c3n2)c1 [Compound 187, N-(5-(3-(4-(Piperidin-1-yl)-1H-indol-2-yl)-1H-pyrazolo[4,3-b]pyridin-5-yl)pyridin-3-yl)pentanamide] | 4440 | 2040 | – | –
Cc1ccncc1-c1ccc2[nH]nc(-c3cc4c(-c5cc(F)cc(CNS(C)(=O)=O)c5)cccc4[nH]3)c2n1 [Compound 481, N-(3-Fluoro-5-(2-(5-(4-methylpyridin-3-yl)-1H-pyrazolo[4,3-b]pyridin-3-yl)-1H-indol-4-yl)benzyl)methanesulfonamide] | 592 | 78 | – | –
FC1(F)CCN(Cc2cncc(-c3ccc4[nH]nc(-c5cc6ccccc6[nH]5)c4n3)c2)C1 [Compound 278, 5-(5-((3,3-Difluoropyrrolidin-1-yl)methyl)pyridin-3-yl)-3-(1H-indol-2-yl)-1H-pyrazolo[4,3-b]pyridine] | 590 | 90 | – | –

Now from value to compound, other results behind:

EC50 (SW480 colon cancer cells) [nM] | Structure (SMILES) | EC50 [1] [nM] | inhibition at 10 µM (SW480 colon cancer cells) [%] | inhibition at 10 µM ([1]; given where EC50 >10 μM, 10 μM, read-out: percent inhibition at 10 μM) [%]
1060 | Fc1ccccc1-c1cccc2[nH]c(-c3n[nH]c4ccc(-c5cncc(CN6CCCCC6)c5)nc34)cc12 [Compound 71, 3-(4-(2-Fluorophenyl)-1H-indol-2-yl)-5-(5-(piperidin-1-ylmethyl)pyridin-3-yl)-1H-pyrazolo[4,3-b]pyridine] | 725 | – | –
> 10000 | c1cc(-c2ccncc2)c2cc(-c3n[nH]c4ccc(-c5cncc(CNCC6CCCC6)c5)nc34)[nH]c2c1 [Compound 137, 1-Cyclopentyl-N-((5-(3-(4-(pyridin-4-yl)-1H-indol-2-yl)-1H-pyrazolo[4,3-b]pyridin-5-yl)pyridin-3-yl)methyl)methanamine] | 701 | 14.7 | –
290 | CN(C)CCNc1cc(F)cc(-c2cccc3[nH]c(-c4n[nH]c5ccc(-c6cccnc6)nc45)cc23)c1 [Compound 452, N^1-(3-Fluoro-5-(2-(5-(pyridin-3-yl)-1H-pyrazolo[4,3-b]pyridin-3-yl)-1H-indol-4-yl)phenyl)-N^2,N^2-dimethylethane-1,2-diamine] | 38 | – | –
1910 | CN(C)c1cncc(-c2ccc3[nH]nc(-c4cc5c(-c6ccoc6)cccc5[nH]4)c3n2)c1 [Compound 315, 5-(3-(4-(Furan-3-yl)-1H-indol-2-yl)-1H-pyrazolo[4,3-b]pyridin-5-yl)-N,N-dimethylpyridin-3-amine] | 631 | – | –
1680 | CN(C)Cc1cncc(-c2ccc3[nH]nc(-c4cc5c(-c6ccc(F)cc6)cccc5[nH]4)c3n2)c1 [Compound 41, 1-(5-(3-(4-(4-Fluorophenyl)-1H-indol-2-yl)-1H-pyrazolo[4,3-b]pyridin-5-yl)pyridin-3-yl)-N,N-dimethylmethanamine] | 544 | – | –
801 | CN(C)Cc1cncc(-c2ccc3[nH]nc(-c4cc5c(-c6cccnc6)cccc5[nH]4)c3n2)c1 [Compound 97, N,N-Dimethyl-1-(5-(3-(4-(pyridin-3-yl)-1H-indol-2-yl)-1H-pyrazolo[4,3-b]pyridin-5-yl)pyridin-3-yl)methanamine] | 451 | – | –
3450 | c1cc(-c2ccoc2)c2cc(-c3n[nH]c4ccc(-c5cncc(CNCC6CCCC6)c5)nc34)[nH]c2c1 [Compound 333, 1-Cyclopentyl-N-((5-(3-(4-(furan-3-yl)-1H-indol-2-yl)-1H-pyrazolo[4,3-b]pyridin-5-yl)pyridin-3-yl)methyl)methanamine] | 955 | – | –
